Experimental data from patent publication US20080269202A1, “Novel 2,3-benzodiazepine derivatives and their use as antipsychotic agents” (Teva Pharmaceutical Industries Ltd., priority 2007, published 2008).
pKi: −log10 of the molar value. Like-named read-outs stand apart in the source and are kept apart here.

Legend:
[1] = test system: apomorphine-induced climbing; test: apomorphine-induced climbing test in mice; format: in vivo, CD1 mice; settings: Mus musculus, read-out: Climbing ED50 (mg/kg ip.)
Procedure: (§1) Anti-apomorphine effects were investigated in the climbing test in mice mediated through the mesolimbic and stereotypy test in rats mediated through the nigrostriatal system. Conventional antipsychotics antagonize both apomorphine-induced behaviours, while known atypical antipsychotics are weaker against apomorphine stereotypy.
The climbing test was carried out according to Protais et al. (Protais, P. et al. Psychopharmacologia, 1976, 50, 1.) Stereotyped behavior was induced in food deprived (for 16 hours) male CD1 mice weighing 20-25 g body by apomorphine HCl (SIGMA) in a s.c. dose of 2 mg/kg. Mice were placed individually into cylinders having 12 cm diameter and consisting of vertical bars of 2 mm diameter where apomorphine treated animals tended to adopt a vertical position in contrary to vehicle treated controls. Test substances were applied ip. 30 min before apomorphine.
10 and 20 min after apomorphine treatment the climbing behaviour was evaluated by scores of 0-2. 10 mice/group were used. The scores of the two readings were summed individually, meaned and compared to the control. The ED50 values were calculated by Litchfield-Wilcoxon's method (Litchfield Jr. J. T., Wilcoxon, F. J. Pharmacol. Exp. Ther. 1949, 96, 49,).

[2] = test system: conditioned avoidance responses; test: conditioned avoidance: pole jumping test in rats; format: in vivo, Long-Evans rats
Description: For measuring the antipsychotic potential in a non-perturbed dopamine system the pole jumping assay was used (Cook, L., Catania, A. C. Fed. Proc. 1964, 23, 818.)
This method is an active avoidance learning test. Long-Evans rats, weighing 250-450 g, were used in the experiments. Rats are placed in a box (25×25×25 cm) on a grid floor in the center of which there is a pole. After a latency period, light is turned on for a given time then the floor is electrified to deliver an unpleasant footshock. Rats may learn to avoid the shock by jumping up to grasp the pole. As soon as the rat jumps up the light and shock are turned off. Each light-on period lasted for 15 s, shock time for 30 s with an intertrial interval of 15 s. 30 such trials per day were repeated during the learning period until animals reach a minimum of 80% avoidance rate. During the experimental sessions 20 trials/day were run. Test substances were administered ip. in a volume of 0.25 ml/100 g body weight. Significances were calculated by Student's t test.

serotonergic receptors [3] = biological target: T1, serotonergic receptors (Rattus norvegicus, UniProt P14842); test: in vitro binding profile to serotonergic receptors (Table 3); settings: rat cerebral cortical membranes, ligand [3H]ketanserin; read-out: 5HT2A binding
T1 construct: other: rat cerebral cortical membranes, ligand [3H]ketanserin
T1 sequence (P14842 whole entry): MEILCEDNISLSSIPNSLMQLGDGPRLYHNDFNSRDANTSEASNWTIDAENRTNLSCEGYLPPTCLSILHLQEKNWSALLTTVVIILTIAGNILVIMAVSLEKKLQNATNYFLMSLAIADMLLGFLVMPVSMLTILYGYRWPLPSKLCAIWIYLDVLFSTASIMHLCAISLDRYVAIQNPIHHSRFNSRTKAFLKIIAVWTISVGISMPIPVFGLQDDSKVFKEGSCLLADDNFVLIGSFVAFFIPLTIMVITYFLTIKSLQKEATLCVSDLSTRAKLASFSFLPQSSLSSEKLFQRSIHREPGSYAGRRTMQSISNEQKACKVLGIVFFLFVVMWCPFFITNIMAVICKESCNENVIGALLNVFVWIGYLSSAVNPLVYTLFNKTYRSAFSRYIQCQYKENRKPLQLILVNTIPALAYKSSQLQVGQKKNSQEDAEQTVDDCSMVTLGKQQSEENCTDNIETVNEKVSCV
Description: (§2) The new 2,3-benzodiazepine atypical antipsychotic agents of formula (I) of the present invention influence dopaminergic neurotransmission by a unique indirect fashion, differently from both the first and second generation antipsychotics. The in vitro binding profile of these compounds (Table 3) differs from that of the first generation antipsychotics which bind to dopaminergic receptors and second generation antipsychotics, representatives of which show affinity for dopaminergic, serotonergic, or adrenergic receptors.

serotonergic receptors [4] = biological target: T2, serotonergic receptors (Rattus norvegicus, UniProt P19327); test: as above; settings: rat hippocampal membranes, ligand [3H]-8-OH-DPAT; read-out: 5HT1A binding
T2 construct: other: rat hippocampal membranes, ligand [3H]-8-OH-DPAT
T2 sequence (P19327 1-422): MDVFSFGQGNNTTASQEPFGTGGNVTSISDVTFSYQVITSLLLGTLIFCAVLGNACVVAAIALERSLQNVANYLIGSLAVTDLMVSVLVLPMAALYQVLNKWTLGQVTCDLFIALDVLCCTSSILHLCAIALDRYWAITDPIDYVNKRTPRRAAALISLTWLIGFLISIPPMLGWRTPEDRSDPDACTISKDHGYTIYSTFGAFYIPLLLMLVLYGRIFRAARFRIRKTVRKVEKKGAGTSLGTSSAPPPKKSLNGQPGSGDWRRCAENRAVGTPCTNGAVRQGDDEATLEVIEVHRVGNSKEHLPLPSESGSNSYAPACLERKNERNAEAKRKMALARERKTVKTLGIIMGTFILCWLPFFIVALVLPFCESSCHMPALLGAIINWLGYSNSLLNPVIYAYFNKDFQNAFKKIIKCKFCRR
Description: as §2

[5] = test system: PCP-induced hypermotility; test: PCP-induced hypermotility (motor activity meter) in mice; format: in vivo; settings: Mus musculus, read-out: PCP-hypermotility ED50 mg/kg po.
Description: Alterations in the mesocortical dopaminergic tract are thought to be responsible for the negative symptoms of schizophrenia (flattening of affect, poverty of speech, lack of volition and drive, loss of feeling, social withdrawal and decreased spontaneous movement). The best animal model of these symptoms is the behavioral changes induced by PCP (phencyclidine). The PCP-induced stereotypy and hypermotility was investigated in mice according to Ljungberg and Ungerstedt (Ljungberg, T., Ungerstedt, U. Pharmacol. Biochem. Behav., 1985, 23, 479,) and Jawitt (Jawitt, D. C. Amer. J. Psychiatry, 1991, 145, 1301). The stereotypy experiments were carried out in male CD1 mice weighing 20-25 g. The animals were starved for 16 hours before treatment without limitation of water availability. In the stereotypy studies, 30 min before treatment, mice were individually placed into small, transparent acrylic cages for habituation. Test substances were administered orally in a volume of 0.1 ml/10 g. 30 min later mice were treated with PCP with an intraperitoneal dose of 7 mg/kg. Stereotyped behavior was observed every 5th min for 60 min and scored from 0 to 4. The scores were summed individually, averaged and compared to the control group.
The motor activity was measured in a 4-channel activity meter. The apparatus consisted of acrylic cages (40×40×32 cm) equipped with 16 pairs of infrared photocells. The photocells' beam, when broken, signaled a count, which was then recorded by a computer. A 5 mg/kg intraperitoneal dose of PCP was administered 5 min before the experiment. This dose of PCP induces 110-120% increase of the spontaneous motor activity. Test substances were administered orally 15 min before experiment, and mice were investigated individually in the experimental cages for 60 min. 10 mice/group were used. The total counts for each experimental group were compared to the vehicle treated control group.
In both studies the ED50 values were calculated by the Litchfield-Wilcoxon's method (J. Pharmacol. Exp. Ther. 1949, 96, 49).

[6] = test system: apomorphine-induced stereotyped behavior; test: apomorphine-induced stereotypy; format: in vivo, CD1 mice; settings: Mus musculus, read-out: Stereotypy ED50 (mg/kg po.)
Description: as §1
Apomorphine-induced stereotypy was investigated according to Costall and Naylor (B. Costall and R. J. Naylor, Eur. J. Pharmacol. 1972, 18, 95) in male CD1 mice of 20-25 g body weight after 16 hours deprivation of food. 30 min before treatment mice were individually placed into small, transparent acrylic cages for habituation. Test substances were administered orally in a volume of 0.1 ml/10 g. 30 min later mice were treated with apomorphine HCl (SIGMA) in a subcutaneous dose of 2 mg/kg. […] The scores were summed individually, meaned and compared to the control group. The ED50 values were calculated by Litchfield-Wilcoxon's method (J. Pharmacol. Exp. Ther. 1949, 96, 49,).

[7] = mice, ip. 30 min before apomorphine 2 mg/kg s.c.
[8] = mice, po. 15 min before experiment, PCP 5 mg/kg ip
[9] = mice, po. 30 min before apomorphine 2 mg/kg s.c.

Structure (SMILES)	ED50 [1, 7] [mg/kg]	MED (mg/kg ip), minimal effective dose (stat. sign.) [2] [mg/kg]	pKi (serotonergic receptors [3])	pKi (serotonergic receptors [4])	ED50 [5, 8] [mg/kg]	ED50 [6, 9] [mg/kg]	ED50 [1] [mg/kg]	ED50 [5] [mg/kg]	ED50 [6] [mg/kg]
COc1cc2c(cc1OC)C(c1ccc(N)c(C)c1)=NN(c1ncon1)[C@H](C)C2 [Example 104]	7.7	15	< 5.00	< 5.00	0.73	6.97	–	–	–
COc1cc2c(cc1OC)C(c1ccc(N)c(C)c1)=NN(c1nncs1)[C@H](C)C2 [Example 110]	14.6	2	< 5.00	< 5.00	1.4	3.5	–	–	–
CNC(=O)N1N=C(c2ccc(N)cc2)c2cc(OC)c(OC)cc2C[C@H]1C [Example 121]	–	5	< 5.00	< 5.00	–	–	4.31	0.87	3.54
CNC(=O)N1N=C(c2ccc(N)c(C)c2)c2cc(OC)c(OC)cc2C[C@H]1C [Example 123]	–	2	< 5.00	< 5.00	–	–	9.2	0.62	7.52
